Results published in PMC6066355, “Probing the binding site of novel selective positive allosteric modulators at the M1 muscarinic acetylcholine receptor” (Biochemical Pharmacology, 2018).
Where a chain is given by its changes, count along the chain named.

Legend:
Assay in all cases: IP-One (IP1) accumulation assay, FlpIn CHO cells
Format in all cases: cell-based
F77^2.56I M1 mAChR = target: T1, F77^2.56I M1 mAChR (Homo sapiens, UniProt P11229, F77I); conditions: for LogτB (logarithm of functional efficacy of the modulator): corrected for receptor expression levels relative to WT; for τB (functional efficacy of the modulator, antilog in brackets): corrected for receptor expression relative to WT; for Logαβ (logarithm of functional cooperativity between ACh and modulator): pKB constrained to Table 1, β constrained to 1
T1 construct: expressed in transfected cells
T1 sequence (P11229 1-460 F77I): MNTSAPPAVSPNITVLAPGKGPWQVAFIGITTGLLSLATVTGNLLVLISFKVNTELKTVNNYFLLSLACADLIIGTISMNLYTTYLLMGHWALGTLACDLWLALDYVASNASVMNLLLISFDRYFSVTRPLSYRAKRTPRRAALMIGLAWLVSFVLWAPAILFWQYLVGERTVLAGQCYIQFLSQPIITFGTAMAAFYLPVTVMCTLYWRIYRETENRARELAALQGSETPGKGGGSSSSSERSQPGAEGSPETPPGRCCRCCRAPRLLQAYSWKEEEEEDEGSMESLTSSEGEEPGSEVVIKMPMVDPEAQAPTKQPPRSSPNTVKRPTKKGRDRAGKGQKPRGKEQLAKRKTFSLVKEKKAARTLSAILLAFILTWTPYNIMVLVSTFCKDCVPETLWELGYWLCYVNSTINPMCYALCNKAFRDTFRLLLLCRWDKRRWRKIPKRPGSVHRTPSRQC
Protocol: (§1) The IP-One assay kit (Cisbio) was used for the direct quantitative measurement of myo-Inositol 1 phosphate (IP1). Cells were seeded at 25,000 per well into 96-well transparent cell culture plates and incubated overnight at 37 °C. […] Cells were then lysed with IP1 lysis buffer (50 mM HEPES pH 7.0, 15 mM KF, 1.5% V/V Triton-X-100, 3% V/V FBS, 0.2% W/V BSA), and IP1 levels were measured by incubation of cell lysates with FRET reagents (the cryptate-labeled anti-IP1 antibody and the d2-labeled IP1 analogue) for 1 h at 37 °C. […] Signals were expressed as the FRET ratio: F = (fluorescence665 nm/fluorescence590 nm) × 10^4, and normalized to the response to maximal ACh concentration (100 µM).
(§2) (Eq. (2)) was used:(2) Y=Basal+Em-Basal/1+KA+A/τA where Em is the maximal possible system response and Basal is the response in the absence of agonist. [A] denotes the concentration of ligand, and KA represents its equilibrium dissociation constants. τ denotes the intrinsic efficacy of the ligand, which incorporates the total receptor density and the efficiency of stimulus-response coupling.
(§3) Functional interaction studies between orthosteric agonists and allosteric modulators in IP1 assays were analysed using the following operational model of allosterism and agonism (Eq. (3)):(3) E=Basal+Em-BasalAKB+αβB+τBBEC50/EC50KB+B+AKB+αβB+τBBEC50 where Em is the maximal possible system response, and Basal is the response in the absence of agonist. KB is the equilibrium dissociation constant of allosteric ligand, and EC50 is the concentration of orthosteric agonist required to achieve half maximal response. [A] and [B] denote concentrations of orthosteric and allosteric ligands, respectively. α and β denote allosteric effects on orthosteric ligand binding affinity and efficacy, respectively, and τB denotes the efficacy of allosteric ligand. This model assumes that ACh is a full agonist at the receptor in both the absence/presence of modulator and/or there is no efficacy modulation (i.e., β = 1).

Y179^ECL2A M1 mAChR = target: T2, Y179^ECL2A M1 mAChR (Homo sapiens, UniProt P11229, Y179A)
T2 construct: expressed in transfected cells
T2 sequence (P11229 1-460 Y179A): T1 sequence (P11229 1-460 F77I) with I77F, Y179A
Protocol: as §1, §2, §3

Y82^2.61A M1 mAChR = target: T3, Y82^2.61A M1 mAChR (Homo sapiens, UniProt P11229, Y82A); conditions: for LogτB (logarithm of functional efficacy of the modulator): corrected for receptor expression levels relative to WT; for τB (functional efficacy of the modulator, antilog in brackets): corrected for receptor expression relative to WT; for Logαβ (logarithm of functional cooperativity between ACh and modulator): pKB constrained to Table 1, β constrained to 1
T3 construct: expressed in transfected cells
T3 sequence (P11229 1-460 Y82A): T1 sequence (P11229 1-460 F77I) with I77F, Y82A
Protocol: as §1, §2, §3

W400^7.35A M1 mAChR = target: T4, W400^7.35A M1 mAChR (Homo sapiens, UniProt P11229, W400A)
T4 construct: expressed in transfected cells
T4 sequence (P11229 1-460 W400A): T1 sequence (P11229 1-460 F77I) with I77F, W400A
Protocol: as §1, §2, §3

αβ (functional cooperativity with ACh, antilog in brackets) (F77^2.56I M1 mAChR)	LogτB (logarithm of functional efficacy of the modulator) (F77^2.56I M1 mAChR)	τB (functional efficacy of the modulator, antilog in brackets) (F77^2.56I M1 mAChR)	Logαβ (logarithm of functional cooperativity between ACh and modulator) (F77^2.56I M1 mAChR)	Modulation of ACh-stimulated IP1 accumulation (Y179^ECL2A M1 mAChR)	αβ (functional cooperativity with ACh, antilog in brackets) (Y82^2.61A M1 mAChR)	LogτB (logarithm of functional efficacy of the modulator) (Y82^2.61A M1 mAChR)	τB (functional efficacy of the modulator, antilog in brackets) (Y82^2.61A M1 mAChR)	Logαβ (logarithm of functional cooperativity between ACh and modulator) (Y82^2.61A M1 mAChR)	Modulation of ACh-stimulated IP1 accumulation (W400^7.35A M1 mAChR)	Compound
63	1.52 ± 0.06	33	1.80 ± 0.15	abolished	91	1.85 ± 0.12	71	1.96 ± 0.14	abolished	Cn1cc(-c2ccc(COc3ccccc3-c3cc(=O)n(C4CCCCC4O)cn3)cc2)cn1 (stereo not drawn) [MIPS1780, 3-(2-hydroxycyclohexyl)-6-(2-((4-(1-methyl-1H-pyrazol-4-yl)-benzyl)oxy)phenyl)pyrimidin-4(3H)-one]
112	1.51 ± 0.07	32	2.05 ± 0.13	abolished	46	0.95 ± 0.12	9	1.66 ± 0.12	abolished	Cc1cnc(C(=O)N[C@H]2CCOC[C@@H]2O)cc1Cc1ccc(-c2cscn2)cc1 [PF-06767832, N-((3R,4S)-3-hydroxytetrahydro-2H-pyran-4-yl)-5-methyl-4-(4-(thiazol-4-yl)benzyl)pyridine-2-carboxamide]

Compound	αβ (functional cooperativity with ACh, antilog in brackets) (F77^2.56I M1 mAChR)	LogτB (logarithm of functional efficacy of the modulator) (F77^2.56I M1 mAChR)	τB (functional efficacy of the modulator, antilog in brackets) (F77^2.56I M1 mAChR)	Logαβ (logarithm of functional cooperativity between ACh and modulator) (F77^2.56I M1 mAChR)	Modulation of ACh-stimulated IP1 accumulation (Y179^ECL2A M1 mAChR)	αβ (functional cooperativity with ACh, antilog in brackets) (Y82^2.61A M1 mAChR)	LogτB (logarithm of functional efficacy of the modulator) (Y82^2.61A M1 mAChR)	τB (functional efficacy of the modulator, antilog in brackets) (Y82^2.61A M1 mAChR)	Logαβ (logarithm of functional cooperativity between ACh and modulator) (Y82^2.61A M1 mAChR)	Modulation of ACh-stimulated IP1 accumulation (W400^7.35A M1 mAChR)
Cn1cc(-c2ccc(Cn3cc(C(=O)N[C@H]4CCCC[C@@H]4O)c4c(F)cc(F)cc43)cn2)cn1 [VU6004256, 4,6-difluoro-N-(1S,2S)-2-hydroxycyclohexyl-1-((6-(1-methyl-1H-pyrazol-4-yl)pyridine-3-yl)methyl)-1H-indole-3-carboxamide]	51	1.43 ± 0.06	27	1.71 ± 0.15	abolished	19	0.50 ± 0.10	3	1.29 ± 0.10	abolished
